Experimental data as given in patent US9957266B2, “Imidazo[1,2-a]pyridin-7-amine” (Hoffmann-La Roche Inc., priority 2013, dated 2018).

What was measured:
tau aggregates = experiment: Autoradiography of tritiated radioligands on human cortical AD brain sections; format: binding; conditions: Braak V staged AD patient
Procedure: FIG. 1 is an autoradiogram of [^3H]-2-(4-methoxyphenyl)imidazo[1,2-a]pyridin-7-amine (example 5) incubated with human cortical brain sections obtained from a Braak V staged AD patient. The radioligand concentration was 2.6 nM.
FIG. 2 is an autoradiogram of [^3H]-2-[4-(2-fluoroethoxy)phenyl]imidazo[1,2-a]pyridin-7-amine (example 6) incubated with human cortical brain sections obtained from a Braak V staged AD patient. The radioligand concentration was 2.5 nM.
FIGS. 1 and 2 represent autoradiograms of respectively [[^3H]-2-(4-methoxyphenyl)imidazo[1,2-a]pyridin-7-amine (example 5) and [^3H]-2-[4-(2-fluoroethoxy)phenyl]imidazo[1,2-a]pyridin-7-amine (example 6) incubated with human cortical brain sections obtained from a Braak V staged AD patient. The radioligand concentrations were 2.6 and 2.5 nM, respectively.

native tau aggregates = experiment: TAU radioligand in vitro displacement assay ([^3H]T808, autoradiography); format: binding; conditions: human AD brain sections; radioligand [^3H]T808 10 nM; cold compound 10 nM; 50 mM Tris pH 7.4, room temperature, 30 min
Procedure: (§1) FIG. 3 represents data from the TAU radioligand in vitro displacement assay described below. This in vitro binding assay assesses the affinity of compounds for native tau aggregates. The compounds are co-incubated with the well-established tau specific radioligand [^3H]T808 and the compound's displacement potency of [^3H]T808 binding is determined by in vitro autoradiography using human Alzheimer's disease (AD) brain sections.
as §1, with “This” for “FIG. 3 represents data from the TAU radioligand in vitro displacement assay described below. This”, “sections (see FIG. 3).” for “sections.”
AD human brains are purchased from Banner Sun Health Research Institute (Sun City, Ariz., USA). Pathological diagnosis of AD is made according to standard NIA-Reagan Institute criteria based on neuropathological data. The radioligand [^3H]T808 was synthesized in-house ([^3H]-2-[4-(2-Fluoro-ethyl)-piperidin-1-yl]-benzo[4,5]imidazo[1,2-a]pyrimidine, radiochemical purity 99.0%). As a reference cold T808 is used (2-[4-(2-Fluoro-ethyl)-piperidin-1-yl]-benzo[4,5]imidazo[1,2-a]pyrimidine). For the autoradiography FujiFilm Imaging Plates (BAS-IP TR 2025) are exposed to the sections and read with a FujiFilm IP reader (BAS-5000).
Ten μm thick human AD brain sections are generated with a cryostat (Leica CM3050) at −17° C. chamber temperature and −15° C. object temperature. Sections are transferred to Histobond+ microscope slides (Marienfeld Laboratory Glasware). After drying for 3 hours at room temperature the sections are stored at −20° C. The sections are incubated with the radioligand (10 nM) and the respective cold compound (at various concentrations) in 50 mM Tris buffer, pH 7.4 at room temperature for 30 min. After washing 3×10 min at 4° C. in 50 mM Tris buffer, pH 7.4 and 3 quick dips in H2O dist. at 4° C. the sections are dried at 4° C. for 3 h. The sections are placed in a FujiFilm Cassette (BAS 2025), exposed with an Imaging Plate for five days and afterwards scanned with a resolution of […].
The signal intensity (Dens-PSL/mm2) in the region of interest (ROI) of the autoradiogram is quantified with the software MCID analysis (version 7.0, Imaging Research Inc.). The specific binding (SB) of [^3H]T808 binding in absence or in presence of a compound is calculated by subtracting the non-specific binding signal in the white matter, thus yielding SB[3H]T808 only and SBcompound. The % displacement by the various compounds is calculated as following: % displacement=100−(SBcompund/SB[3H]T808 only)*100. Validation Data
In each experiment cold T808 is used as a positive internal control. […]

tau aggregates, sequence (P10636 623-695 limits assumed): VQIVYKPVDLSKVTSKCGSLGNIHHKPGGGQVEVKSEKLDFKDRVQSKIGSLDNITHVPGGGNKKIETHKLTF

% displacement of [^3H]T808 (10 nM) at 10 nM (native tau aggregates)	Compound	other results
–	[^3H]-2-[4-(2-Fluoroethoxy)phenyl]imidazo[1,2-a]pyridin-7-amine [Example 6]	autoradiogram staining pattern (tau aggregates; radioligand concentration 2.5 nM (FIG. 2)): punctate staining of tau aggregates in a layered distribution pattern and a varying degree of non-specific binding in white matter
–	[^3H]-2-(4-Methoxyphenyl)imidazo[1,2-a]pyridin-7-amine [Example 5]	autoradiogram staining pattern (tau aggregates; radioligand concentration 2.6 nM (FIG. 1)): punctate staining of tau aggregates in a layered distribution pattern and a varying degree of non-specific binding in white matter
51%	Nc1ccn2cc(-c3ccc(OCF)cc3)nc2c1 [Example 2, 2-(4-(Fluoromethoxy)phenyl)imidazo[1,2-a]pyridin-7-amine]	–
25%	Nc1ccn2cc(-c3ccc(OCCCF)cc3)nc2c1 [Example 3, 2-[4-(3-Fluoropropoxy)phenyl]imidazo[1,2-a]pyridin-7-amine]	–
67%	COc1ccc(-c2cn3ccc(N)cc3n2)cc1 [Example 1, 2-(4-Methoxyphenyl)imidazo[1,2-a]pyridin-7-amine]	–
50%	Nc1ccn2cc(-c3ccc(OCCF)cc3)nc2c1 [Example 4, 2-[4-(2-Fluoroethoxy)phenyl]imidazo[1,2-a]pyridin-7-amine]	–
